Measurements reported in patent publication US6413733B1, “Stabilized reagent and method for determining creatine kinase” (Roche Diagnostics GmbH, priority 1997, dated 2002).

How the values were obtained:
Type in all cases: biochemical
[1] = tested on: G6P-DH; assay: Long-term stability G6P-DH, 10 mmol/l DTT compared to 1 mmol/l Na2SO3
Experimental: (§1) For the determination 250 μl R1 is mixed with 10 μl sample, incubated for 5 minutes, the reaction is started with 50 μl R2 and the CK activity is measured after incubating for a further 1 minute. The CK or G6P-DH enzyme activity was determined after storage at 2 to 8° C. or 35° C. for various periods (table 1-3,FIGS. 1-3).
The reagent R was combined with the sample to be measured as described in example 1 and the corresponding enzyme activities were determined (table 5,FIG. 5).

[2] = tested on: creatine kinase (CK); assay: Regeneration of the CK in R1 by adding sulfite in R2 (example 4); conditions: 10 mmol/l sulfite in R2
Experimental: as §1
The mixing of R1, R2 and the respective sample and the subsequent determination were carried out according to example 1.

[3] = tested on: creatine kinase (CK); assay: CK functional stability of the reagent with Na2SO3 (example 1); conditions: for CK functional stability, 35° C. compared to 2 to 8° C.: 14 days storage
Experimental: as §1

[4] = tested on: G6P-DH; assay: G6P-DH stability in the reagent with Na2SO3, 14 days storage (example 1); conditions: for G6P-DH stability, 35° C. compared to 2 to 8° C.: 14 days storage
Experimental: as §1

[5] = tested on: creatine kinase (CK); assay: Influence of the amount of sulfite on the CK activity (example 2)
Experimental: as §1
The reagent composition and the test procedure are essentially analogous to example 1. Only the amount of sodium sulfite (0 to 20 mmol/l) added to reagent 1 was varied.

[6] = 10 mmol/l DTT, example 3, 0 days at 2 to 8° C.
[7] = 10 mmol/l DTT, example 3, 55 days at 2 to 8° C.
[8] = 10 mmol/l DTT, example 3, 85 days at 2 to 8° C.
[9] = 10 mmol/l DTT, example 3, 114 days at 2 to 8° C.
[10] = 10 mmol/l DTT, example 3, 136 days at 2 to 8° C.
[11] = 10 mmol/l DTT, example 3, 192 days at 2 to 8° C.
[12] = 10 mmol/l DTT, example 3, 220 days at 2 to 8° C.
[13] = 1 mmol/l sulfite, example 1, 0 days at 2 to 8° C.
[14] = 1 mmol/l sulfite, example 1, 55 days at 2 to 8° C.
[15] = 1 mmol/l sulfite, example 1, 85 days at 2 to 8° C.
[16] = 1 mmol/l sulfite, example 1, 114 days at 2 to 8° C.
[17] = 1 mmol/l sulfite, example 1, 136 days at 2 to 8° C.
[18] = 1 mmol/l sulfite, example 1, 192 days at 2 to 8° C.
[19] = 1 mmol/l sulfite, example 1, 220 days at 2 to 8° C.
[20] = 1 mmol/l sulfite, example 1, 308 days at 2 to 8° C.
[21] = 1 mmol/l sulfite, example 1, 345 days at 2 to 8° C.
[22] = 1 mmol/l sulfite, example 1, 451 days at 2 to 8° C.
[23] = 1 mmol/l Na2SO3 in reagent 1, sample 1
[24] = 1 mmol/l Na2SO3 in reagent 1, sample 2
[25] = 2 mmol/l Na2SO3 in reagent 1, sample 1
[26] = 2 mmol/l Na2SO3 in reagent 1, sample 2
[27] = 3 mmol/l Na2SO3 in reagent 1, sample 1
[28] = 3 mmol/l Na2SO3 in reagent 1, sample 2
[29] = 4 mmol/l Na2SO3 in reagent 1, sample 1
[30] = 4 mmol/l Na2SO3 in reagent 1, sample 2

O[C@H](CS)[C@H](O)CS (racemic) [DTT, dithiothreitol, reference compound] was tested, and the G6P-DH activity [1, 6] was 4.67 U/ml, the “G6P-DH activity relative to day 0” value [1, 6] was 100.0% and the G6P-DH activity [1, 7] was 2.81 U/ml. For the same compound, the “G6P-DH activity relative to day 0” value [1, 7] was 60.2%, the G6P-DH activity [1, 8] was 2.69 U/ml and the “G6P-DH activity relative to day 0” value [1, 8] was 57.6%. The G6P-DH activity [1, 9] was 2.07 U/ml, the “G6P-DH activity relative to day 0” value [1, 9] was 44.4% and the G6P-DH activity [1, 10] was 1.55 U/ml. For the same compound, the “G6P-DH activity relative to day 0” value [1, 10] was 33.1%, the G6P-DH activity [1, 11] was 0.52 U/ml and the “G6P-DH activity relative to day 0” value [1, 11] was 11.1%. The G6P-DH activity [1, 12] was 0.29 U/ml and the “G6P-DH activity relative to day 0” value [1, 12] was 6.2%.
For O=S([O-])[O-].[Na+].[Na+] [Na2SO3, sodium sulfite], the G6P-DH activity [1, 13] was 3.68 U/ml, the “G6P-DH activity relative to day 0” value [1, 13] was 100.0% and the G6P-DH activity [1, 14] was 3.65 U/ml. For the same compound, the “G6P-DH activity relative to day 0” value [1, 14] was 99.2%, the G6P-DH activity [1, 15] was 3.77 U/ml and the “G6P-DH activity relative to day 0” value [1, 15] was 102.3%. The G6P-DH activity [1, 16] was 3.57 U/ml, the “G6P-DH activity relative to day 0” value [1, 16] was 96.9% and the G6P-DH activity [1, 17] was 3.35 U/ml. For the same compound, the “G6P-DH activity relative to day 0” value [1, 17] was 91.0%, the G6P-DH activity [1, 18] was 3.15 U/ml and the “G6P-DH activity relative to day 0” value [1, 18] was 85.5%. For the same compound, the G6P-DH activity [1, 19] was 3.12 U/ml, the “G6P-DH activity relative to day 0” value [1, 19] was 84.7% and the G6P-DH activity [1, 20] was 2.98 U/ml. The “G6P-DH activity relative to day 0” value [1, 20] was 80.9%, the G6P-DH activity [1, 21] was 2.65 U/ml and the “G6P-DH activity relative to day 0” value [1, 21] was 72.0%. For the same compound, the G6P-DH activity [1, 22] was 2.12 U/ml, the “G6P-DH activity relative to day 0” value [1, 22] was 57.6% and the “CK activity, Sample 1” value ([2]; R1 stress 14 days 2-8° C.) was 238 U/l. The “CK activity, Sample 2” value ([2]; R1 stress 14 days 2-8° C.) was 509 U/l, the “recovery sample 1 (vs. fresh reagent)” value ([2]; R1 stress 14 days 2-8° C.) was 100.8% and the “recovery sample 2 (vs. fresh reagent)” value ([2]; R1 stress 14 days 2-8° C.) was 99.5%. The “CK activity, Sample 1” value ([2]; R1 stress 14 days 35° C.) was 227 U/l, the “CK activity, Sample 2” value ([2]; R1 stress 14 days 35° C.) was 486 U/l and the “recovery sample 1 (vs. fresh reagent)” value ([2]; R1 stress 14 days 35° C.) was 96.2%. For the same compound, the “recovery sample 2 (vs. fresh reagent)” value ([2]; R1 stress 14 days 35° C.) was 94.7%, the “CK activity, 14 days storage at 2 to 8° C.” value (shortened to “CK activity … to 8° C.”) [3, 23] was 278 U/l and the “CK activity, 14 days storage at 35° C.” value [3, 23] was 267 U/l. The “CK functional stability, 35° C. compared to 2 to 8° C.” value [3, 23] was 96.0%, the “CK activity … to 8° C.” value [3, 24] was 540 U/l and the “CK activity, 14 days storage at 35° C.” value [3, 24] was 512 U/l. The “CK functional stability, 35° C. compared to 2 to 8° C.” value [3, 24] was 94.8%, the “CK activity … to 8° C.” value [3, 25] was 274 U/l and the “CK activity, 14 days storage at 35° C.” value [3, 25] was 265 U/l. For the same compound, the “CK functional stability, 35° C. compared to 2 to 8° C.” value [3, 25] was 97.0%, the “CK activity … to 8° C.” value [3, 26] was 530 U/l and the “CK activity, 14 days storage at 35° C.” value [3, 26] was 510 U/l. For the same compound, the “CK functional stability, 35° C. compared to 2 to 8° C.” value [3, 26] was 96.2%, the “CK activity … to 8° C.” value [3, 27] was 271 U/l and the “CK activity, 14 days storage at 35° C.” value [3, 27] was 267 U/l. The “CK functional stability, 35° C. compared to 2 to 8° C.” value [3, 27] was 98.5%, the “CK activity … to 8° C.” value [3, 28] was 523 U/l and the “CK activity, 14 days storage at 35° C.” value [3, 28] was 503 U/l. For the same compound, the “CK functional stability, 35° C. compared to 2 to 8° C.” value [3, 28] was 96.2%, the “CK activity … to 8° C.” value [3, 29] was 260 U/l and the “CK activity, 14 days storage at 35° C.” value [3, 29] was 272 U/l. For the same compound, the “CK functional stability, 35° C. compared to 2 to 8° C.” value [3, 29] was 104.4%, the “CK activity … to 8° C.” value [3, 30] was 505 U/l and the “CK activity, 14 days storage at 35° C.” value [3, 30] was 521 U/l. For the same compound, the “CK functional stability, 35° C. compared to 2 to 8° C.” value [3, 30] was 103.1%, the “G6P-DH activity, 14 days storage at 2 to 8° C.” value (shortened to “G6P-DH activity … to 8° C.”) ([4]; 1 mmol/l Na2SO3 in reagent 1) was 3.95 U/l and the “G6P-DH activity, 14 days storage at 35° C.” value (shortened to “G6P-DH activity … at 35° C.”) ([4]; 1 mmol/l Na2SO3 in reagent 1) was 1.50 U/l. The “G6P-DH stability, 35° C. compared to 2 to 8° C.” value ([4]; 1 mmol/l Na2SO3 in reagent 1) was 38.1%, the “G6P-DH activity … to 8° C.” value ([4]; 2 mmol/l Na2SO3 in reagent 1) was 3.92 U/l and the “G6P-DH activity … at 35° C.” value ([4]; 2 mmol/l Na2SO3 in reagent 1) was 1.57 U/l. For the same compound, the “G6P-DH stability, 35° C. compared to 2 to 8° C.” value ([4]; 2 mmol/l Na2SO3 in reagent 1) was 39.9%, the “G6P-DH activity … to 8° C.” value ([4]; 3 mmol/l Na2SO3 in reagent 1) was 3.98 U/l and the “G6P-DH activity … at 35° C.” value ([4]; 3 mmol/l Na2SO3 in reagent 1) was 1.69 U/l. The “G6P-DH stability, 35° C. compared to 2 to 8° C.” value ([4]; 3 mmol/l Na2SO3 in reagent 1) was 42.5%, the “G6P-DH activity … to 8° C.” value ([4]; 4 mmol/l Na2SO3 in reagent 1) was 4.06 U/l and the “G6P-DH activity … at 35° C.” value ([4]; 4 mmol/l Na2SO3 in reagent 1) was 1.76 U/l. For the same compound, the “G6P-DH stability, 35° C. compared to 2 to 8° C.” value ([4]; 4 mmol/l Na2SO3 in reagent 1) was 43.5%, the “CK activity, Sample 1” value ([5]; sulfite 1 mmol/l test) was 242 U/l and the “CK activity, Sample 2” value ([5]; sulfite 1 mmol/l test) was 530 U/l. The “CK function relative to 0 mmol/l sulfite, Sample 1” value ([5]; sulfite 1 mmol/l test) was 102.9%, the “CK function relative to 0 mmol/l sulfite, Sample 2” value ([5]; sulfite 1 mmol/l test) was 100.2% and the “CK activity, Sample 1” value ([5]; sulfite 2 mmol/l test) was 239 U/l. For the same compound, the “CK activity, Sample 2” value ([5]; sulfite 2 mmol/l test) was 520 U/l, the “CK function relative to 0 mmol/l sulfite, Sample 1” value ([5]; sulfite 2 mmol/l test) was 101.4% and the “CK function relative to 0 mmol/l sulfite, Sample 2” value ([5]; sulfite 2 mmol/l test) was 98.4%. The “CK activity, Sample 1” value ([5]; sulfite 3 mmol/l test) was 236 U/l, the “CK activity, Sample 2” value ([5]; sulfite 3 mmol/l test) was 514 U/l and the “CK function relative to 0 mmol/l sulfite, Sample 1” value ([5]; sulfite 3 mmol/l test) was 100.3%. For the same compound, the “CK function relative to 0 mmol/l sulfite, Sample 2” value ([5]; sulfite 3 mmol/l test) was 97.2%, the “CK activity, Sample 1” value ([5]; sulfite 4 mmol/l test) was 227 U/l and the “CK activity, Sample 2” value ([5]; sulfite 4 mmol/l test) was 496 U/l. For the same compound, the “CK function relative to 0 mmol/l sulfite, Sample 1” value ([5]; sulfite 4 mmol/l test) was 96.4%, the “CK function relative to 0 mmol/l sulfite, Sample 2” value ([5]; sulfite 4 mmol/l test) was 93.8% and the “CK activity, Sample 1” value ([5]; sulfite 5 mmol/l test) was 215 U/l. The “CK activity, Sample 2” value ([5]; sulfite 5 mmol/l test) was 504 U/l, the “CK function relative to 0 mmol/l sulfite, Sample 1” value ([5]; sulfite 5 mmol/l test) was 91.3% and the “CK function relative to 0 mmol/l sulfite, Sample 2” value ([5]; sulfite 5 mmol/l test) was 95.3%. The “CK activity, Sample 1” value ([5]; sulfite 10 mmol/l test) was 196 U/l, the “CK activity, Sample 2” value ([5]; sulfite 10 mmol/l test) was 464 U/l and the “CK function relative to 0 mmol/l sulfite, Sample 1” value ([5]; sulfite 10 mmol/l test) was 83.2%. The “CK function relative to 0 mmol/l sulfite, Sample 2” value ([5]; sulfite 10 mmol/l test) was 87.7%, the “CK activity, Sample 1” value ([5]; sulfite 20 mmol/l test) was 182 U/l and the “CK activity, Sample 2” value ([5]; sulfite 20 mmol/l test) was 441 U/l. The “CK function relative to 0 mmol/l sulfite, Sample 1” value ([5]; sulfite 20 mmol/l test) was 77.3% and the “CK function relative to 0 mmol/l sulfite, Sample 2” value ([5]; sulfite 20 mmol/l test) was 83.3%.
